Assay results: patent US9352015B2, “Antimicrobial peptides” (priority 2009, dated 2016)
In brackets after ≈: the same amount, converted by molar mass. Several values for one entry are separate records, joined by “and”; a condition that tells them apart may be missing. Equal entries are not always repeated. Where two headings read alike, the source gives them in different places.

Key:
[1] = Hemolytic activity against human erythrocytes (HC50 / MHC, microtiter dilution); type: cell-based; conditions: human, 1% human erythrocytes, pH 7.4
Procedure: Hemoglobin release was determined spectrophotometrically at 570 nm. The hemolytic activity was determined as the peptide concentration that caused 50% hemolysis of erythrocytes after 18 h (HC50). […] HC50 was determined by a plot of peptide concentration versus percent lysis.

[2] = system: Acinetobacter baumannii; type: cell-based; conditions: for Acinetobacter baumannii MICGM: geometric mean, 11 different isolates, 24 hours at 37° C.
Procedure: (§1) Minimal inhibitory concentrations (MICs) are determined using a standard microtiter dilution method, with 3 sets of determinations, in LB (Luria-Bertani) no-salt medium (10 g of tryptone and 5 g of yeast extract per liter). In some cases, Mueller Hinton (MH) medium or Brain Heart Infusion (BHI) medium is used.
(§2) Briefly, cells were grown overnight at 37° C. in LB and diluted in the same medium. Serial dilutions of the peptides are added to the microtiter plates in a volume of 100 μl followed by 10 μl of bacteria to give a final inoculum of 5×10^5 colony-forming units/ml. Plates are incubated at 37° C. for 24 hours and MICs determined as the lowest peptide concentration that inhibited growth. Alternatively, minimal inhibitory concentrations are determined using a standard microtiter dilution method in a Mueller-Hinton (MH) medium. Briefly, cells are grown overnight at 37° C. in MH broth and diluted in the same medium. In some cases, serial dilutions of the peptides are added to the microtiter plates in a volume of 100 μl followed by 10 μl of bacteria to give a final inoculum of 1×10^5 colony-forming units/ml. Plates are incubated at 37° C. for 24 hours and MICs are determined as the lowest peptide concentration that inhibited growth.
The biological activities of these six peptide analogs was determined against 11 clinical isolated of Acinetobacter baumannii (Table 9). Please note that the activities are reported in micromolar rather than microgram/ml. This allows a direct comparison on a molar basis with the effectiveness of molecules of different molecular weights whether peptides disclosed herein or antibiotics which in general are smaller in molecular mass. […] These are the highest antimicrobial activities observed in studies of antimicrobial peptides derived by modifying the peptide sequence of SEQ ID NO:24 (D1). D22 has the best hemolytic activity of the six analogs (D17-D22) and a therapeutic index of […] compared to […] for D1 (Table 9). D22 has no apparent advantage over D1 as determined in these experiments.

[3] = system: Methicillin Resistant Staphylococcus aureus (MRSA) and Staphylococcus aureus; type: cell-based
Procedure: as §1, §2
Identification of Antimicrobial Peptides for Gram-positive Bacteria. In a manner similar to testing against gram-negative bacteria, experiments were carried out to screen the 14 peptides used to identify antimicrobial peptides with significant activity against A. baumanii shown above against 20 different clinical isolates of Methicillin Resistant Staphylococcus aureus (MRSA) and Staphylococcus aureus.

[4] = RP-HPLC retention as measure of overall peptide hydrophobicity; type: physicochemical; conditions: for Change in hydrophobicity (retention time) relative to PVL: 80° C., polar face substitution
Procedure: Crude and purified peptides were analyzed on an Agilent 1100 series liquid chromatograph (Little Falls, Del.). Runs were performed on a Zorbax 300 SB-C8 column (150×2.1 mm I.D.; 5 μm particle size, 300 Å pore size) from Agilent Technologies using linear AB gradient (1% acetonitrile/min) and a flow rate of 0.25 ml/min, where eluant A was 0.2% aqueous TFA, pH 2 and eluant B was 0.2% TFA in acetonitrile.

[5] = system: Pseudomonas aeruginosa; conditions: for MIC PAO 1: 37° C., 24 h, strain PAO1; for MIC GM (geometric mean of the MIC values): six P. aeruginosa strains; for MIC CP 204: strain CP204; for MIC M 2: strain M2; for MIC PA 14: strain PA14; for MIC PAK: strain PAK; for MIC WR 5: strain WR5; for Pseudomonas aeruginosa MICGM: geometric mean, 6 different isolates, 24 hours at 37° C.
[6] = RP-HPLC temperature profiling (peptide self-association parameter PA); type: physicochemical; conditions: enantiomer pairs of V681 analogs, 5° C. to 80° C., relative to peptide C
Procedure: Temperature profiling analyses were performed on the same column in 3° C. increments, from 5° C. to 80° C., using a linear AB gradient of 0.5% acetonitrile/min, as described previously (30, 53, 92, 93).
Peptide self-association (i.e., the ability to oligomerize/dimerize) in aqueous solution is a very important parameter for antimicrobial activity (53, 92, 93). Without wishing to be bound by any particular theory, the present inventors postulated that monomeric random-coil antimicrobial peptides are best suited to pass through the capsule and cell wall of microorganisms prior to penetration into the cytoplasmic membrane, induction of α-helical structure and disruption of membrane structure to kill target cells (93). Thus, if the self-association ability of a peptide in aqueous media is too strong (e.g., forming stable folded dimers through interaction of their non-polar faces) this could decrease the ability of the peptide to dissociate to monomer, in addition oligomerization of the peptide can prevent it from effectively passing through the capsule and cell wall to reach the membrane. The ability of the peptides in the present study to self-associate was determined by the technique of RP-HPLC temperature profiling at pH 2 (29, 30, 38). The reason pH 2 is used to determine self-association of cationic AMPs is that highly positively charged peptides are frequently not eluted from reversed-phase columns at pH 7 due to non-specific binding to negatively charged silanols on the column matrix. This is not a problem at pH 2 since the silanols are protonated (i.e., neutral) and non-specific electrostatic interactions are eliminated. At pH 2, the interactions between the peptide and the reversed-phase matrix involve ideal retention behavior, i.e., only hydrophobic interactions between the preferred binding domain (nonpolar face) of the amphipathic molecule and the hydrophobic surface of the column matrix are present (39). […] Control peptide C is a monomeric random coil peptide in both aqueous and hydrophobic media; thus, its linear decrease in peptide retention behavior with increasing temperature within the range of 5° C. to 80° C. represents only the general effects of temperature due to greater solute diffusivity and enhanced mass transfer between the stationary and mobile phase at higher temperatures (55). To allow for these general temperature effects, the data for the control peptide was subtracted from each temperature profile as shown in FIG. 2B. Thus, the peptide self-association parameter, PA, represents the maximum change in peptide retention time relative to the random coil peptide C. Note that the higher the PA value, the greater the self-association.

For `CC[C@@H](C)[C@@H](NC(=O)[C@@H](CC(C)C)NC(=O)[C@@H](CCCCN)NC(=O)[C@@H](CC(C)C)NC(=O)[C@@H](CC(C)C)NC(=O)[C@H](NC(=O)[C@@H](Cc1c[nH]cn1)NC(=O)[C@@H](CC(C)C)NC(=O)[C@@H](CCCCN)NC(=O)[C@H](NC(=O)[C@@H](CCCCN)NC(=O)[C@@H](CCCCN)NC(=O)[C@@H](CC(C)C)NC(=O)[C@@H](CO)NC(=O)[C@@H](CCCCN)NC(=O)[C@@H](Cc1ccccc1)NC(=O)[C@H](NC(=O)[C@@H](CCCCN)NC(=O)[C@@H](CC(C)C)NC(=O)[C@@H](Cc1ccccc1)NC(=O)[C@@H](CO)NC(=O)[C@@H](CCCCN)NC(=O)[C@@H](Cc1c[nH]c2ccccc12)NC(=O)[C@@H](CCCCN)NC(C)=O)[C@H](C)O)[C@H](C)O)[C@H](C)O)C(=O)N[C@H](CO)C(=O)N[C@H](CO)C(N)=O` [Peptide D5, Ac-KWKSFLKTFKSLKKTKLHTLLKLISS-amide], the HC50 at 18 h [1] was 47 µg/mL and 14.9 µM, the “MIC GM (geometric mean)” value [2] was 1.7 µM (≈ 5.35 µg/mL) and the Acinetobacter baumannii MICGM [2] was 1.7 µM. The “MIC GM (geometric mean)” value [3] was 5.4 µM (≈ 17 µg/mL), the “Hydrophobicity (retention time in RP-HPLC)” value ([4]; pH 2, room temperature) was 80.44 min and the “MIC PAO 1” value ([5]; Brain Heart Infusion medium) was 31.3 µg/mL (≈ 9.95 µM). For the same molecule, the “MIC GM (geometric mean of the MIC values)” value ([5]; Brain Heart Infusion medium) was 22.1 µg/mL, the “MIC CP 204” value ([5]; Brain Heart Infusion medium) was 31.3 µg/mL (≈ 9.95 µM) and the “MIC M 2” value ([5]; Brain Heart Infusion medium) was 15.6 µg/mL (≈ 4.96 µM). For the same molecule, the “MIC PA 14” value ([5]; Brain Heart Infusion medium) was 15.6 µg/mL (≈ 4.96 µM), the “MIC PAK” value ([5]; Brain Heart Infusion medium) was 31.3 µg/mL (≈ 9.95 µM) and the “MIC WR 5” value ([5]; Brain Heart Infusion medium) was 15.6 µg/mL (≈ 4.96 µM). For the same molecule, the “MIC PAO 1” value ([5]; Mueller Hinton medium) was 7.8 µg/mL (≈ 2.48 µM), the “MIC GM (geometric mean of the MIC values)” value ([5]; Mueller Hinton medium) was 11.0 µg/mL and the “MIC CP 204” value ([5]; Mueller Hinton medium) was 15.6 µg/mL (≈ 4.96 µM). The “MIC M 2” value ([5]; Mueller Hinton medium) was 7.8 µg/mL (≈ 2.48 µM), the “MIC PA 14” value ([5]; Mueller Hinton medium) was 7.8 µg/mL (≈ 2.48 µM) and the “MIC PAK” value ([5]; Mueller Hinton medium) was 15.6 µg/mL (≈ 4.96 µM). The “MIC WR 5” value ([5]; Mueller Hinton medium) was 15.6 µg/mL (≈ 4.96 µM) and the Pseudomonas aeruginosa MICGM [5] was 3.5 µM.
In the case of `CC[C@@H](C)[C@@H](NC(=O)[C@@H](CC(C)C)NC(=O)[C@@H](CCCCN)NC(=O)[C@@H](CC(C)C)NC(=O)[C@@H](CC(C)C)NC(=O)[C@H](NC(=O)[C@@H](CCCCN)NC(=O)[C@@H](CC(C)C)NC(=O)[C@@H](CCCCN)NC(=O)[C@@H](CCCCN)NC(=O)[C@@H](CCCCN)NC(=O)[C@@H](CCCCN)NC(=O)[C@@H](CC(C)C)NC(=O)[C@@H](CCCCN)NC(=O)[C@@H](CO)NC(=O)[C@@H](Cc1ccccc1)NC(=O)[C@H](NC(=O)[C@@H](CCCCN)NC(=O)[C@@H](CC(C)C)NC(=O)[C@@H](Cc1ccccc1)NC(=O)[C@@H](CO)NC(=O)[C@@H](CCCCN)NC(=O)[C@@H](Cc1c[nH]c2ccccc12)NC(=O)[C@@H](CCCCN)NC(C)=O)[C@H](C)O)[C@H](C)O)C(=O)N[C@H](CO)C(=O)N[C@H](CCCCN)C(N)=O` [Peptide D12, Ac-KWKSFLKTFSKLKKKKLKTLLKLISK-amide], the HC50 at 18 h [1] is reported as 18.3 µM, the “MIC GM (geometric mean)” value [2] is reported as 1.9 µM (≈ 6.09 µg/mL) and the Acinetobacter baumannii MICGM [2] is reported as 1.9 µM. The “MIC GM (geometric mean)” value [3] was 5.2 µM (≈ 16.7 µg/mL) and the Pseudomonas aeruginosa MICGM [5] was 3.9 µM.
For `CC[C@@H](C)[C@@H](NC(=O)[C@@H](C)NC(=O)[C@@H](CCCCN)NC(=O)[C@@H](CC(C)C)NC(=O)[C@@H](CC(C)C)NC(=O)[C@H](NC(=O)[C@@H](CCCCN)NC(=O)[C@@H](CC(C)C)NC(=O)[C@@H](CCCCN)NC(=O)[C@@H](CCCCN)NC(=O)[C@@H](CCCCN)NC(=O)[C@@H](CCCCN)NC(=O)[C@@H](CC(C)C)NC(=O)[C@@H](CCCCN)NC(=O)[C@@H](CO)NC(=O)[C@@H](Cc1ccccc1)NC(=O)[C@H](NC(=O)[C@@H](CCCCN)NC(=O)[C@@H](CC(C)C)NC(=O)[C@@H](Cc1ccccc1)NC(=O)[C@@H](CO)NC(=O)[C@@H](CCCCN)NC(=O)[C@@H](Cc1c[nH]c2ccccc12)NC(=O)[C@@H](CCCCN)NC(C)=O)[C@H](C)O)[C@H](C)O)C(=O)N[C@H](CO)C(=O)N[C@H](CCCCN)C(N)=O` [Peptide D13, Ac-KWKSFLKTFSKLKKKKLKTLLKAISK-amide], the HC50 at 18 h [1] was 106 µM, the “MIC GM (geometric mean)” value [2] was 1.0 µM (≈ 3.16 µg/mL) and the Acinetobacter baumannii MICGM [2] was 1 µM. For the same molecule, the “MIC GM (geometric mean)” value [3] was 8.6 µM (≈ 27.2 µg/mL) and the Pseudomonas aeruginosa MICGM [5] was 2.5 µM.
For “D-NAL: enantiomer of NAD, SEQ ID NO:25 (KWKSFLKTFKSAAKTVLHTALKAISS; not fully specified; D-amino acids)”, the “PA (peptide self-association parameter)” value [6] was 4.1.
In the case of “D-V681: D-enantiomer of V681 (KWKSFLKTFKSAVKTVLHTALKAISS; all D-amino acids)”, the “PA (peptide self-association parameter)” value [6] is reported as 7.2.
For “PAL: V681 with L-Ala at position 11, SEQ ID NO:14 (KWKSFLKTFKAAVKTVLHTALKAISS)”, the “Change in hydrophobicity (retention time) relative to PVL” value [4] was “+0.45 min”.
In the case of “PKL: V681 with L-Lys at position 11, SEQ ID NO:17 (KWKSFLKTFKKAVKTVLHTALKAISS)”, the “Change in hydrophobicity (retention time) relative to PVL” value [4] is reported as -2.29 min.
